Measured values: patent publication US11752125B2, “Anti-neuroinflammatory and protective compounds in Achillea fragrantissima” (THE STATE OF ISRAEL MINISTRY OF AGRICULTURE & RURAL …, priority 2013, dated 2023)

Experiments:
[1] = system: astrocytes; assay: H2O2-induced intracellular ROS levels in astrocytes (DCF-DA); type: cell-based, rat; conditions: for ability to reduce H2O2-induced ROS compared among TTF, quercetin and memantine: concentrations higher than 16 μM, ROS after 1 h, p>0.05
Procedure: Intracellular ROS levels were detected using the non-fluorescent cell permeating compound, 2′7′-dichlorofluorescein diacetate (DCF-DA). DCF-DA is hydrolyzed by intracellular esterases and then oxidized by ROS to a fluorescent compound 2′-7′-DCF. Astrocytes were plated onto 24 wells plates (300,000 cells/well) and treated with DCF-DA (20 μM) for 30 min at 37° C. Following incubation with DCF-DA, cultures were rinsed twice with PBS and then re-suspended in DMEM containing 10% FBS, 8.4 mM HEPES, 2 mM glutamine, 100 U/ml penicillin, and 100 μg/mL streptomycin. ROS levels (fluorescence) at time zero were measured in a plate reader with excitation at 485 nm and emission at 520 nm. Astrocytes were then treated with TTF for 2 h before the addition of H2O2 and ROS levels (fluorescence) were measured in a plate reader with excitation at 485 nm and emission at 520 nm every hour for 4 h.
1. Produce a primary culture of rat brain glial cells according to the method described in “Protective effects of the essential oil of salvia fruticosa and its constituents on astrocytic susceptibility to hydrogen peroxide-induced cell death”. 2009. A. Elmann, S. Mordechay, M. Rindner, O. Larkov, M. Elkabetz, U. Ravid. Journal of agricultural and food chemistry. 57(15):6636-41; 2. Separate astrocytes from other cell types in the culture according to the method described in “Protective effects of the essential oil of salvia fruticosa and its constituents on astrocytic susceptibility to hydrogen peroxide-induced cell death”. 2009. A. Elmann, S. Mordechay, M. Rindner, O. Larkov, M. Elkabetz, U. Ravid. Journal of agricultural and food chemistry. 57(15):6636-41; 3. Plate astrocytes (300,000 cells/0.5 ml/well of 24 wells plate) and incubate (37° C., 5% CO2) for 24 hr as described in: Elmann, A., et al., (2011). Extract of Achillea fragrantissima downregulates ROS production and protects astrocytes from oxidative-stress-induced cell death. In: “Neurodegenerative Diseases—Processes, Prevention, Protection and Monitoring”, ISBN 978-953-307-485-6, (Raymond Chuen-Chung Chang, ed). […] Read fluorescence of “time 0” at 485 nm (Extinction) and 528 nm (Emmision). […] Read fluorescence at 1, 2, 3, 4 hr after the addition of H2O2 (Ex: 485 nm and Em: 528 nm). […]
Astrocytes were pre-loaded with DCF-DA for 30 min and washed. […] ROS levels in astrocytes were measured 1 h and 4 h after the application of H2O2. […] H2O2 was added to the culture and the fluorescence intensity representing ROS levels was measured after 1 h. […]
Preloaded astrocytes were then preincubated for 2 h with various concentrations of achillolide A or memantine. H2O2(175 μM) was added and the fluorescence intensity was measured […]. […]

[2] = Hydrogen peroxide scavenging activity (A230); conditions: for H2O2 scavenging ability: 1 mM H2O2 in PBS, 10 min; for H2O2 scavenged: 8 μM compound; for H2O2 scavenged / H2O2 scavenging ability at higher concentrations: 1 mM H2O2, 10 min; for H2O2 scavenging ability at higher concentrations: up to 32 μM compound
Procedure: The scavenging of H2O2 was determined by the method of Ruch et al. Carcinogenesis. 1989 June; 10(6):1003-8, using 1 mM instead of 4 mM H2O2. A 1 mM solution of H2O2 was prepared in PBS and was incubated with different concentrations of TTF, quercetin or memantine. Absorbance (A230) was determined spectrophotometrically 10 min later against blank solutions containing TTF, quercetin or memantine in PBS without H2O2.
(§1) For assessment of H2O2 scavenging activity, 1 mM H2O2 and different concentrations of TTF, quercetin or memantine were co-incubated in PBS. Optical density was measured 10 min later. The results are shown in FIG. 6 and are means±SEM of two experiments performed in duplicates (n=4). **P<0.01, ***P<0.001, compared to H2O2 in the absence of TTF.
as §1, with “[…]” for “assessment”, “achillolide A,” for “TTF,”, “results” for “results are shown in FIG. 6 and”, “compound Results are shown in FIG. 38.” for “TTF.”

SMILES	ability to reduce H2O2-induced ROS compared among TTF, quercetin and memantine ([1]; 2 h preincubation)	H2O2 scavenging ability [2]	effect on H2O2-induced ROS production ([1]; 2 h preincubation, H2O2 175 μM, fluorescence 20 h later)	H2O2 scavenged [2] [%]	H2O2 scavenging ability at higher concentrations [2] [%]	effect on H2O2-induced intracellular ROS levels ([1]; 8 μM, H2O2 175 μM, ROS measured 1 h and 4 h after H2O2)
CC12CC3CC(C)(C1)CC(N)(C3)C2 [memantine, reference compound]	no significant difference	did not have any scavenging ability				
C=C1CCC2=C(CO)C(=O)O[C@H]2/C=C(\C)[C@H](OC(C)=O)CC1=O [achillolide A]		hydrogen peroxide scavenging ability	attenuates			
O=c1c(O)c(-c2ccc(O)c(O)c2)oc2cc(O)cc(O)c12 [quercetin, 3,3′,4′,5,7-Pentahydroxyflavone, reference compound]	no significant difference			57	88	
COc1cc(-c2oc3cc(OC)c(OC)c(O)c3c(=O)c2O)ccc1O [TTF, 3,5,4′-trihydroxy-6,7,3′-trimethoxyflavone]				7	≤ 7	inhibited the H2O2-induced elevation of intracellular ROS
